Results: ChEMBL document CHEMBL5104211, “Design and synthesis of bile acid derivatives and their activity against colon cancer” (RSC Med Chem, 2022)

Assays:
[1] = system: SK-HEP1; experiment: Anticancer activity against human SK-HEP1 cells assessed as inhibition of cell proliferation by MTT assay; assay type: functional, cell-based
[2] = system: MGC-803; experiment: Anticancer activity against human MGC-803 cells assessed as inhibition of cell proliferation by MTT assay; assay type: functional, cell-based
[3] = system: RKO; experiment: Anticancer activity against human RKO cells assessed as inhibition of cell proliferation by MTT assay; assay type: functional, cell-based
[4] = system: HCT-116; experiment: Anticancer activity against human HCT-116 cells assessed as inhibition of cell proliferation by MTT assay; assay type: functional, cell-based
[5] = system: SW480; experiment: Anticancer activity against human SW480 cells assessed as inhibition of cell proliferation by MTT assay; assay type: functional, cell-based
[6] = system: A549; experiment: Anticancer activity against human A549 cells assessed as inhibition of cell proliferation by MTT assay; assay type: functional, cell-based
[7] = Cytotoxicity against human WI-38 cells assessed as inhibition of cell proliferation by MTT assay; assay type: toxicity, cell-based
[8] = system: Huh-7; experiment: Anticancer activity against human Huh-7 cells assessed as inhibition of cell proliferation by MTT assay; assay type: functional, cell-based
[9] = system: LoVo; experiment: Anticancer activity against human LoVo cells assessed as inhibition of cell proliferation by MTT assay; assay type: functional, cell-based
[10] = system: HT-29; experiment: Anticancer activity against human HT-29 cells assessed as inhibition of cell proliferation by MTT assay; assay type: functional, cell-based
[11] = system: HCT-116; experiment: Induction of apoptosis in human HCT-116 cells assessed as viable cells at 30 micromol/L incubated for 48 hrs by annexin V-FITC and propidium iodide staining based flow cytometry analysis (reference value: 89.29%); assay type: functional; settings: HCT-116, 48 h, dose 30 µmol/L, read-out: Activity
[12] = system: HCT-116; experiment: Induction of apoptosis in human HCT-116 cells assessed as late apoptotic cells at 30 micromol/L incubated for 48 hrs by annexin V-FITC and propidium iodide staining based flow cytometry analysis (reference value: 7.13%); assay type: functional; settings: dose 30 µmol/L, at 30 µM
[13] = system: HCT-116; experiment: Induction of apoptosis in human HCT-116 cells assessed as necrotic cells at 30 micromol/L incubated for 48 hrs by annexin V-FITC and propidium iodide staining based flow cytometry analysis (reference value: 0.88%); assay type: functional; settings: dose 30 µmol/L, at 30 µM
[14] = system: HCT-116; experiment: Induction of apoptosis in human HCT-116 cells assessed as early apoptotic cells at 30 micromol/L incubated for 48 hrs by annexin V-FITC and propidium iodide staining based flow cytometry analysis (reference value: 2.69%); assay type: functional; settings: dose 30 µmol/L, at 30 µM

Row | Compound | IC50 [1] [µM] | IC50 [2] [µM] | IC50 [3] [µM] | IC50 [4] [µM] | IC50 [5] [µM] | IC50 [6] [µM] | IC50 [7] [µM] | IC50 [8] [µM] | IC50 [9] [µM] | IC50 [10] [µM] | viability at 30 µM [11] [%] | Activity [12] [%] | Activity [13] [%] | Activity [14] [%]
1 | CC(=O)Oc1ccc(OC(=O)CC[C@@H](C)[C@H]2CC[C@H]3[C@@H]4[C@H](O)C[C@@H]5C[C@H](O)CC[C@]5(C)[C@H]4CC[C@]23C)cc1 | 85 | 109 | 142 | 149 | 100 | > 200 | > 200 | 60.7 | 76.9 | 56.3 | – | – | – | –
2 | O=c1[nH]cc(F)c(=O)[nH]1 [FLUOROURACIL] | 12.5 | 6.06 | 12.7 | 32.3 | 21.9 | 109 | – | 1.06 | – | 17.5 | 27.9 | 69.38 | 0.59 | 2.13
3 | C[C@H](CCC(=O)O)[C@H]1CC[C@H]2[C@@H]3CC[C@@H]4C[C@H](O)CC[C@]4(C)[C@H]3CC[C@]12C [LITHOCHOLIC ACID] | > 200 | > 200 | > 200 | > 200 | > 200 | > 200 | – | > 200 | > 200 | > 200 | – | – | – | –
4 | C[C@H](CCC(=O)OCc1cccc(O)c1)[C@H]1CC[C@H]2[C@@H]3[C@H](O)C[C@@H]4C[C@H](O)CC[C@]4(C)[C@H]3C[C@H](O)[C@]12C | 61.8 | 54.9 | 47.6 | 33 | 39.3 | 47.8 | > 200 | 102 | 28.7 | 24.3 | – | – | – | –
5 | C[C@H](CCC(=O)O)[C@H]1CC[C@H]2[C@@H]3[C@H](O)C[C@@H]4C[C@H](O)CC[C@]4(C)[C@H]3C[C@H](O)[C@]12C [CHOLIC ACID] | > 200 | > 200 | > 200 | > 200 | > 200 | > 200 | – | > 200 | > 200 | > 200 | – | – | – | –
6 | C[C@H](CCC(=O)OCc1cccc(O)c1)[C@H]1CC[C@H]2[C@@H]3CC[C@@H]4C[C@H](O)CC[C@]4(C)[C@H]3CC[C@]12C | 125 | > 200 | 150 | 142 | 183 | > 200 | > 200 | 185 | 158 | 173 | – | – | – | –
7 | C[C@H](CCC(=O)O)[C@H]1CC[C@H]2[C@@H]3[C@@H](O)C[C@@H]4C[C@H](O)CC[C@]4(C)[C@H]3CC[C@]12C [URSODIOL] | > 200 | > 200 | > 200 | > 200 | > 200 | > 200 | – | > 200 | > 200 | > 200 | – | – | – | –
8 | C[C@H](CCC(=O)OCc1cccc(O)c1)[C@H]1CC[C@H]2[C@@H]3[C@@H](O)C[C@@H]4C[C@@H](O)CC[C@]4(C)[C@H]3CC[C@]12C | 155 | 59.4 | 68.8 | 54.2 | 99 | > 200 | > 200 | 152 | 44.9 | 58.8 | – | – | – | –
9 | C[C@H](CCC(=O)NCc1ccccc1O)[C@H]1CC[C@H]2[C@@H]3[C@H](O)C[C@@H]4C[C@H](O)CC[C@]4(C)[C@H]3C[C@H](O)[C@]12C | 25.4 | 42.3 | 48.5 | 36.3 | 35.9 | 40.5 | > 200 | 63.7 | 51.1 | 32.7 | – | – | – | –
10 | CC(=O)Oc1ccc(OC(=O)CC[C@@H](C)[C@H]2CC[C@H]3[C@@H]4[C@@H](O)C[C@@H]5C[C@@H](O)CC[C@]5(C)[C@H]4CC[C@]23C)cc1 | 177 | 111 | 187 | 102 | > 150 | 187 | > 200 | 185 | 168 | 123 | – | – | – | –
11 | COC(=O)[C@H](CCSC)NC(=O)CC[C@@H](C)[C@H]1CC[C@H]2[C@@H]3[C@H](O)C[C@@H]4C[C@H](O)CC[C@]4(C)[C@H]3C[C@H](O)[C@]12C | 173 | 96.9 | 97.3 | 85.2 | 64.7 | > 200 | > 200 | 190 | 51.6 | 127 | – | – | – | –
12 | C[C@H](CCC(=O)OCc1ccc([N+](=O)[O-])cc1)[C@H]1CC[C@H]2[C@@H]3[C@H](O)C[C@@H]4C[C@H](O)CC[C@]4(C)[C@H]3CC[C@]12C | 111 | 50.6 | 43.2 | 40.4 | 44.1 | 87.2 | > 200 | 44.6 | 30.4 | 29.6 | – | – | – | –
13 | C[C@H](CCC(=O)OCc1cccc(O)c1)[C@H]1CC[C@H]2[C@@H]3[C@H](O)C[C@@H]4C[C@H](O)CC[C@]4(C)[C@H]3CC[C@]12C | 99 | 49 | 128 | 42.3 | 42.8 | 69.4 | > 200 | 124 | 40.9 | 33.6 | – | – | – | –
14 | COc1cc(COC(=O)CC[C@@H](C)[C@H]2CC[C@H]3[C@@H]4[C@H](O)C[C@@H]5C[C@H](O)CC[C@]5(C)[C@H]4CC[C@]23C)cc(OC)c1 | 65.1 | 36.6 | 45.4 | 45 | 37.6 | 99.6 | > 200 | 63.1 | 21.3 | 26 | – | – | – | –
15 | C[C@H](CCC(=O)O)[C@H]1CC[C@H]2[C@@H]3[C@H](O)C[C@@H]4C[C@H](O)CC[C@]4(C)[C@H]3CC[C@]12C [CHENODIOL] | > 200 | > 200 | > 200 | > 200 | > 200 | > 200 | – | > 200 | > 200 | > 200 | – | – | – | –
16 | CC(=O)Nc1ccc(OC(=O)CC[C@@H](C)[C@H]2CC[C@H]3[C@@H]4[C@H](O)C[C@@H]5C[C@H](O)CC[C@]5(C)[C@H]4C[C@H](O)[C@]23C)cc1 | 41.1 | 36.7 | 36.3 | 54.3 | 38.7 | 59.4 | > 200 | 70.4 | 58 | 53.3 | – | – | – | –
17 | Cc1ccc(COC(=O)CC[C@@H](C)[C@H]2CC[C@H]3[C@@H]4[C@H](O)C[C@@H]5C[C@H](O)CC[C@]5(C)[C@H]4CC[C@]23C)cc1 | 54.9 | 37.5 | 42.1 | 53.7 | 43.1 | 86.6 | > 200 | 27.2 | 27.4 | 25.4 | – | – | – | –
